Measured values from patent US20120027720A1, “PEPTIDE CONJUGATES” (priority 2008, published 2012).
*1 amine or outer side, *2 acyl side, *3 side chain or, on linkers, in order; H or OH if unused. Where a SMILES comes first, the peptide text is derived from it. Where no end group is shown, it is not given here. [ ]: non-standard residue; d: D form. Cys(StBu) = L-S-tert-butylthio-cysteine, CC(C)(C)SSC[C@H](N[*:1])C(=O)[*:2]; Phe(4-NO2) = N[C@@H](Cc1ccc([N+](=O)[O-])cc1)C(=O)O; 2Pal = N[C@@H](Cc1ccccn1)C(=O)O; Tic = O=C(O)[C@@H]1Cc2ccccc2CN1; Cit = NC(=O)NCCC[C@H](N)C(=O)O; AllylGly = C=CC[C@H](N)C(=O)O; Tle = CC(C)(C)[C@H](N)C(=O)O; hCys = N[C@@H](CCS)C(=O)O; hSer = N[C@@H](CCO)C(=O)O; Nva = CCC[C@H](N)C(=O)O; Abu = CC[C@H](N)C(=O)O

Tests used:
CaCo2 monolayers [1] = experiment: Trans Epithelial Electric Resistance (TEER) across cell monolayer; format: cell-based; design: key to Reduced TEER: + indicates an enhancement of the permeability of the tight junctions were observed; − indicates no enhancement of permeability was observed; settings: for Reduced TEER: Caco-2 monolayer
From the text: (§1) Agonists of tight junctions can be identified by their ability to enhance the flux of compounds (e.g. ions, Lucifer Yellow) through a cell monolayer that comprises tight junctions; or by their ability to reduce TEER across a cell monolayer that comprises tight junctions. Treatment of CaCo2 monolayers with peptide FCIGRL (SEQ ID NO: 1) led to a 51-fold enhancement of Lucifer Yellow permeability through CaCo2 monolayers compared to vehicle alone. Treatment of CaCo2 monolayers with peptide FCIGRL led to a 16-fold decrease in TEER across CaCo2 monolayers compared to vehicle alone.
(§2) Determination of TEER and Lucifer Yellow Flux
(§3) Prepare Modified Hank's Balanced Salt Solution (MHBSS) by obtaining 1 L bottle of HBSS removing 10 ml of HBSS and replacing it with 10 ml HEPES buffer pH 7.0. Adjust pH to 7.4±0.1 using concentrated NaOH (10N).
(§4) Remove Caco-2 cells from incubator, grown on 12-well, […], polycarbonate Transwell® filters (Corning) and record passage#, date cells seeded and age in days.
(§5) Aspirate cell culture medium from both the apical (AP) and basolateral (BL) compartments, replacing with 0.5 ml and 1.5 ml of MHBSS, respectively. Incubate cells at 37° C. for 30 minutes.
Using the MilliCell®-ERS instrument (Millipore), measure and record the transepithelial electrical resistance (TEER) across each filter and record.
(§6) Aspirate solution from the apical compartment of each filter (n=3 per condition) and replace with 0.5 ml of control and test solutions containing Lucifer Yellow and test compound if appropriate.
(§7) Place all plates into incubator set at 37° C. (±0.2), 50 RPM (±5) for a total of 180 minutes.
At t=30, 60, 120 and 180 minutes, measure and record the transepithelial electrical resistance (TEER) across each filter using the MilliCell-ERS instrument.
(§8) Cells: Caco-2 cells passage 40-60 grown on Transwell® plates for 21-28 days
(§9) Culture Medium: DMEM supplemented with 10% fetal bovine serum, 1% NEAA, 1% Penn/Strep
(§10) Buffers: Hank's Balanced Salt Solution (HBSS) without calcium and magnesium
(§11) Flasks: 100×20 mm Tissue culture dish Falcon.
(§12) Plates: 12 well polycarbonate Transwell® filters; 0.3 uM pore size

CaCo2 monolayers [2] = experiment: Epithelial flux of Lucifer Yellow through cell monolayer; format: cell-based; design: key to Enhanced LY permeability: + indicates an enhancement of the permeability of the tight junctions were observed; − indicates no enhancement of permeability was observed; settings: for Enhanced LY permeability: Lucifer Yellow flux, Caco-2 monolayer
From the text: as §1, §2, §3, §4, §5, §6, §7
At t=60, 120 and 180 minutes remove 100 μl from each basolateral compartment and place it in a 96-well plate for Lucifer Yellow analysis, replace with 100 μl of MHBSS.
Make a Lucifer Yellow standard curve with the following dilutions (7500 μM, 3750 μM, 750 μM, 375 μM, 75 μM, 37.5 μM, 7.5 μM, 3.75 μM, 0.75 μM) and pipette […] of each into a 96-well plate except for the first three standards mentioned above which require a 1:10 dilutions prior to transferring to the 96-well plate.
Harvest the remaining start solutions and what is left in each apical compartment into 1.5 ml vials. Freeze at −20° C. for future analysis.
Analyze each 96-well plate in a Tecan Spectra Fluor Plus using Magellan at 485 and 535 nm.
as §8, §9, §10, §11, §12

Compound: 164 (FL[dI]GRL-NH2; also: peptide conjugate) [compound 164]
- Reduced TEER (CaCo2 monolayers [1]): −
- Enhanced LY permeability (CaCo2 monolayers [2]): −

Compound: 200 (P[AllylGly]IGRL-NH2; N-terminus assumed; SMILES C=CC[C@H](NC(=O)[C@@H]1CCCN1)C(=O)N[C@H](C(=O)NCC(=O)N[C@@H](CCCNC(=N)N)C(=O)N[C@@H](CC(C)C)C(N)=O)[C@@H](C)CC) [compound 200]
- Reduced TEER (CaCo2 monolayers [1]): −
- Enhanced LY permeability (CaCo2 monolayers [2]): −

Compound: 117 (FLIGRL-NH2; also: peptide conjugate) [compound 117]
- Reduced TEER (CaCo2 monolayers [1]): −
- Enhanced LY permeability (CaCo2 monolayers [2]): −

Compound: 171 (Ac-F[hSer]IGRL-NH2; also: peptide conjugate) [compound 171]
- Reduced TEER (CaCo2 monolayers [1]): −
- Enhanced LY permeability (CaCo2 monolayers [2]): −

Compound: 146 (H-F[Nva]IGRL-OH; not fully specified; printed as H-Phe-Nva-Ile-Gly-Arg-Leu-OH; also: peptide conjugate, Xaa: 'may be' norvaline) [compound 146]
- Reduced TEER (CaCo2 monolayers [1]): −
- Enhanced LY permeability (CaCo2 monolayers [2]): −

Compound: 135 (FVIGRL; also: peptide conjugate) [compound 135]
- Reduced TEER (CaCo2 monolayers [1]): +
- Enhanced LY permeability (CaCo2 monolayers [2]): +

Compound: 175 (F[L‑beta‑cyclopropyl‑alanine]IGRL; also: peptide conjugate) [compound 175]
- Reduced TEER (CaCo2 monolayers [1]): −
- Enhanced LY permeability (CaCo2 monolayers [2]): −

Compound: 145 (H-F[dC]IGRL-OH; also: peptide conjugate) [compound 145]
- Reduced TEER (CaCo2 monolayers [1]): +
- Enhanced LY permeability (CaCo2 monolayers [2]): +

Compound: 207 (F[AllylGly]SGRL-NH2; N-terminus assumed; SMILES C=CC[C@H](NC(=O)[C@@H](N)Cc1ccccc1)C(=O)N[C@@H](CO)C(=O)NCC(=O)N[C@@H](CCCNC(=N)N)C(=O)N[C@@H](CC(C)C)C(N)=O) [compound 207]
- Reduced TEER (CaCo2 monolayers [1]): +
- Enhanced LY permeability (CaCo2 monolayers [2]): +

Compound: 97 (H-FCIGR[Tle]-OH; SMILES CC[C@H](C)[C@H](NC(=O)[C@H](CS)NC(=O)[C@@H](N)Cc1ccccc1)C(=O)NCC(=O)N[C@@H](CCCNC(=N)N)C(=O)N[C@H](C(=O)O)C(C)(C)C) [compound 97]
- Reduced TEER (CaCo2 monolayers [1]): +
- Enhanced LY permeability (CaCo2 monolayers [2]): +

Compound: 153 (F[Cys(StBu)]IGRL; also: peptide conjugate, Xaa: 'may be' L-S-tert-butylthio-cysteine) [compound 153]
- Reduced TEER (CaCo2 monolayers [1]): −
- Enhanced LY permeability (CaCo2 monolayers [2]): −

Compound: 120 (FPIGRL; also: peptide conjugate) [compound 120]
- Reduced TEER (CaCo2 monolayers [1]): −
- Enhanced LY permeability (CaCo2 monolayers [2]): −

Compound: CC[C@H](C)[C@H](NC(=O)[C@H](CS)NC(=O)[C@@H](N)Cc1ccccc1)C(=O)NCC(=O)N[C@@H](CCCNC(=N)N)C(=O)N[C@@H](CC(C)C)C(=O)O [SEQ ID NO: 1, Phe-Cys-Ile-Gly-Arg-Leu] (H-FCIGRL-OH; N-terminus and C-terminus assumed)
- decrease in TEER across CaCo2 monolayers (CaCo2 monolayers [1]; compared to vehicle alone): 16 fold
- enhancement of Lucifer Yellow permeability through CaCo2 monolayers (CaCo2 monolayers [2]; compared to vehicle alone): 51 fold

Compound: 126 (FFIGRL-NH2; also: peptide conjugate) [compound 126]
- Reduced TEER (CaCo2 monolayers [1]): +
- Enhanced LY permeability (CaCo2 monolayers [2]): +

Compound: 163 (F[2Pal]IGRL; also: peptide conjugate, Xaa: 'may be' L-beta-(2-pyridyl)-alanine) [compound 163]
- Reduced TEER (CaCo2 monolayers [1]): −
- Enhanced LY permeability (CaCo2 monolayers [2]): −

Compound: 194 (G[AllylGly]IGRL-NH2; N-terminus assumed; SMILES C=CC[C@H](NC(=O)CN)C(=O)N[C@H](C(=O)NCC(=O)N[C@@H](CCCNC(=N)N)C(=O)N[C@@H](CC(C)C)C(N)=O)[C@@H](C)CC) [compound 194]
- Reduced TEER (CaCo2 monolayers [1]): −
- Enhanced LY permeability (CaCo2 monolayers [2]): −

Compound: 151 (F[hSer]IGRF; also: peptide conjugate, Xaa: 'may be' homoserine) [compound 151]
- Reduced TEER (CaCo2 monolayers [1]): −
- Enhanced LY permeability (CaCo2 monolayers [2]): −

Compound: 166 (LRG[dI]LF-NH2; also: peptide conjugate) [compound 166]
- Reduced TEER (CaCo2 monolayers [1]): −
- Enhanced LY permeability (CaCo2 monolayers [2]): −

Compound: 141 (H-F[hSer]IGRL-OH; SMILES CC[C@H](C)[C@H](NC(=O)[C@H](CCO)NC(=O)[C@@H](N)Cc1ccccc1)C(=O)NCC(=O)N[C@@H](CCCNC(=N)N)C(=O)N[C@@H](CC(C)C)C(=O)O) [compound 141]
- Enhanced LY permeability (CaCo2 monolayers [2]): +

Compound: 20 ([dL][dR]GI[dC][dF]; not fully specified; printed as D-Leu-D-Arg-Gly-Ile-D-Cys-D-Phe) [compound 20]
- Reduced TEER (CaCo2 monolayers [1]): +
- Enhanced LY permeability (CaCo2 monolayers [2]): +

Compound: 162 (F[hCys]IGRL; also: peptide conjugate, Xaa: 'may be' homocysteine) [compound 162]
- Reduced TEER (CaCo2 monolayers [1]): +
- Enhanced LY permeability (CaCo2 monolayers [2]): +

Compound: 38 ([dL][dR]GIC[dF]; not fully specified) [compound 38]
- Reduced TEER (CaCo2 monolayers [1]): −
- Enhanced LY permeability (CaCo2 monolayers [2]): −

Compound: 186 (M[AllylGly]IGRL-NH2; N-terminus assumed; SMILES C=CC[C@H](NC(=O)[C@@H](N)CCSC)C(=O)N[C@H](C(=O)NCC(=O)N[C@@H](CCCNC(=N)N)C(=O)N[C@@H](CC(C)C)C(N)=O)[C@@H](C)CC) [compound 186]
- Reduced TEER (CaCo2 monolayers [1]): −
- Enhanced LY permeability (CaCo2 monolayers [2]): −

Compound: 26 (LRG[dI]CF; not fully specified; printed as Leu-Arg-Gly-D-Ile-Cys-Phe) [compound 26]
- Reduced TEER (CaCo2 monolayers [1]): +
- Enhanced LY permeability (CaCo2 monolayers [2]): +

Compound: 142 (H-F[Abu]IGRL-OH; SMILES CC[C@H](NC(=O)[C@@H](N)Cc1ccccc1)C(=O)N[C@H](C(=O)NCC(=O)N[C@@H](CCCNC(=N)N)C(=O)N[C@@H](CC(C)C)C(=O)O)[C@@H](C)CC) [compound 142]
- Reduced TEER (CaCo2 monolayers [1]): −
- Enhanced LY permeability (CaCo2 monolayers [2]): −

Compound: 51 (H-[dA]CIGRG-OH; not fully specified) [compound 51]
- Reduced TEER (CaCo2 monolayers [1]): +
- Enhanced LY permeability (CaCo2 monolayers [2]): +

Compound: 134 (FLIGRL; also: peptide conjugate) [compound 134]
- Reduced TEER (CaCo2 monolayers [1]): −
- Enhanced LY permeability (CaCo2 monolayers [2]): −

Compound: 4 (FCAGRL; not fully specified; printed as Phe-Cys-Ala-Gly-Arg-Leu) [compound 4]
- Reduced TEER (CaCo2 monolayers [1]): −
- Enhanced LY permeability (CaCo2 monolayers [2]): −

Compound: 188 (L[AllylGly]IGRL-NH2; N-terminus assumed; SMILES C=CC[C@H](NC(=O)[C@@H](N)CC(C)C)C(=O)N[C@H](C(=O)NCC(=O)N[C@@H](CCCNC(=N)N)C(=O)N[C@@H](CC(C)C)C(N)=O)[C@@H](C)CC) [compound 188]
- Reduced TEER (CaCo2 monolayers [1]): −
- Enhanced LY permeability (CaCo2 monolayers [2]): −

Compound: 83 (GFCIGRL; not fully specified; printed as Gly-Phe-Cys-Ile-Gly-Arg-Leu) [compound 83]
- Reduced TEER (CaCo2 monolayers [1]): +
- Enhanced LY permeability (CaCo2 monolayers [2]): +

Compound: 124 (FDIGRL; also: peptide conjugate) [compound 124]
- Reduced TEER (CaCo2 monolayers [1]): −
- Enhanced LY permeability (CaCo2 monolayers [2]): −

Compound: 104 (FCIG[Cit]L) [compound 104]
- Reduced TEER (CaCo2 monolayers [1]): −

Compound: 77 (Ac-ACIGRS; not fully specified; printed as Ac-Ala-Cys-Ile-Gly-Arg-Ser) [compound 77]
- Reduced TEER (CaCo2 monolayers [1]): −

Compound: 105 ([Phe(4-NO2)]CIGRL) [compound 105]
- Reduced TEER (CaCo2 monolayers [1]): −

Compound: 69 (H-FCIGRLC-OH; not fully specified; cysteine pairing not given here) [compound 69]
- Reduced TEER (CaCo2 monolayers [1]): −

Compound: 109 ([Tic]CIGRL) [compound 109]
- Reduced TEER (CaCo2 monolayers [1]): −
